Laboratory results published in patent US9844550B2, “Phtalazinone derivatives and manufacturing process thereof” (ILDONG PHARM CO., LTD., priority 2013, dated 2017).

Columns and labels:
[1] = Mouse pharmacokinetics; assay type: in vivo; set-up: concentration or dose not given beside the values; conditions: Balb/c male mice, blood samples 15 to 1140 min, LC-MS/MS
Procedure: To evaluate the pharmacokinetics test, the invented compounds (from I-25 to I-1171) were determined as follows. Blood samples are collected at 15, 30, 60, 120, 240, 480, 1140 min. Quantification is by using a LC-MS/MS method specific to the selected compound. Pharmacokinetics parameters are calculated using WinNonLinnon compartmental analysis software.

[2] = system: MDA-MB-436 breast cancer cell line; assay: Cell viability assay (MDA-MB-436); assay type: cell-based; conditions: Homo sapiens, 144 h; MDA-MB-436 cells, treated 6 days
In short: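 MDA-MB-436 breast cancer cells in DMEM/F12 with 10% FBS, treated 24 h after seeding with graded compound concentrations for 6 days at 37 °C, 5% CO2, medium changed every 3 days. Viability read with a fluorescence reagent; IC50 derived.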

[3] = system: Capan-1 pancreatic cancer cell line; assay: Cell viability assay (Capan-1); assay type: cell-based; conditions: Homo sapiens, 240 h; Capan-1 cells, treated 10 days
Procedure: 3. Cell Viability Assay (Capan-1)
Cell viability assay was performed by using Capan-1 cell line to measure cytotoxicity of compounds in the present invention. Capan-1 pancreatic cancer cell line was seeded into 96-well plates at 37° C. under 5% CO2 atmosphere using IMDM (Sigma) containing 10% FBS (Hyclone). After 24 hr incubation, cells were treated with the invented compounds at various concentrations for 10 days. After 7-day incubation, the medium was changed. 10 days later, A fluorescence reagent was used to determine the IC50 values.

[4] = system: LNCaP prostate cancer cell line; assay: Cell viability assay (LNCaP); assay type: cell-based; conditions: Homo sapiens, 264 h; LNCaP cells, treated 11 days
Procedure: 4. Cell Viability Assay (LNCaP)
Cell viability assay was performed by using LNCaP cell line to measure cytotoxicity of compounds in the present invention. LNCaP prostate cancer cell line was seeded into 96-well plates at 37° C. under 5% CO2 atmosphere using RPMI-1640 (Hyclone) containing 10% FBS (Hyclone). After 24 hr incubation, cells were treated with the invented compounds at various concentrations for 11 days. The medium was changed every 3 to 4 day. 11 days later, A fluorescence reagent was used to determine the IC50 values.

[5] = system: Capan-1 Human pancreatic cancer cells; assay: In vivo antitumoral efficacy, Capan-1 subcutaneous xenograft; conditions: Capan-1 xenograft in Balb/c nude mice
Procedure: To evaluate the in vivo antitumoral efficacy, the invented compounds (I-80˜171) was determined as a result to follows.
Capan-1 Human pancreatic cancer cells were established as subcutaneous xenografts by injection of 8×10^6 cells into the flanks of adult female Balb/c nude mice. Mice with established tumors (160-250 mm^3) were selected for study (n=6/treatment group). The test compounds were formulated in DW and administered orally (po) at a dose of 30˜200 mg/kg. The vehicle alone was administered to control groups. Animals were dosed 5 days per week (Monday through Friday) for 3 consecutive weeks.
Animals were weighed and tumor size was determined twice weekly by caliper measurements, and tumor volumes were calculated (volume=[…] (mm^3), where l and w refer to the larger and smaller dimensions collected at each measurement). The mean tumor volumes of each group were calculated. The change in mean treated tumor volume was divided by the change in mean control tumor volume, multiplied by 100 and subtracted from 100% to give the tumor growth inhibition for each group.

[6] = 100 mg/kg po qd x 5, 3 consecutive weeks
[7] = 200 mg/kg po qd x 5, 3 consecutive weeks

AUC [1] [µg·h/mL]	IC50 [2] [µM]	IC50 [3] [µM]	IC50 [4] [µM]	Structure (SMILES)	% TGI [5, 6] [%]	% TGI [5, 7] [%]
3.35	0.005 to 0.05	0.3 to 1		O=C(c1cc(Cc2n[nH]c(=O)c3ccccc23)ccc1F)N1CC(NC2CC2)C1 [Compound I-26, 4-(3-(3-(cyclopropylamino)azetidine-1-carbonyl)-4-fluorobenzyl)phthalazin-1(2H)-one]		
0.295	≤ 0.005	0.3 to 1		O=C(c1cc(Cc2n[nH]c(=O)c3ccccc23)ccc1F)N1CC(CN2CCCC2)C1 [Compound I-140, 4-(4-fluoro-3-(3-(pyrrolidin-1-ylmethyl)azetidine-1-carbonyl)benzyl)phthalazin-1(2H)-one]		
1.09	0.005 to 0.05	0.3 to 1	> 1	CC(C)CNCC1CN(C(=O)c2cc(Cc3n[nH]c(=O)c4ccccc34)ccc2F)C1 [Compound I-146, 4-(4-fluoro-3-(3-((isobutylamino)methyl)azetidine-1-carbonyl)benzyl)phthalazin-1(2H)-one]		
2.25	≤ 0.005	0.3 to 1	> 1	CC(C)CNC1CN(C(=O)c2cc(Cc3n[nH]c(=O)c4ccccc34)ccc2F)C1 [Compound I-35, 4-(4-fluoro-3-(3-(isobutylamino)azetidine-1-carbonyl)benzyl)phthalazin-1(2H)-one]		
0.831	0.005 to 0.05	0.3 to 1		O=C(c1cc(Cc2n[nH]c(=O)c3ccccc23)ccc1F)N1CC(NC2CCC2)C1 [Compound I-25, 4-(3-(3-(cyclobutylamino)azetidine-1-carbonyl)-4-fluorobenzyl)phthalazin-1(2H)-one]		
0.567	0.005 to 0.05	0.3 to 1	> 1	COC[C@@H](C)NC1CN(C(=O)c2cc(Cc3n[nH]c(=O)c4ccccc34)ccc2F)C1 [Compound I-83, (R)-4-(4-fluoro-3-(3-((1-methoxypropan-2-yl)amino)azetidine-1-carbonyl)benzyl)phthalazin-1(2H)-one]		
0.193	0.005 to 0.05	0.3 to 1		O=C(c1cc(Cc2n[nH]c(=O)c3ccccc23)ccc1F)N1CC(CN2CCCCC2)C1 [Compound I-141, 4-(4-fluoro-3-(3-(piperidin-1-ylmethyl)azetidine-1-carbonyl)benzyl)phthalazin-1(2H)-one]		
				Cl.O=C(c1cc(Cc2n[nH]c(=O)c3ccccc23)ccc1F)N1CC(NC2CCCC2)C1 [Compound I-158, 4-(3-(3-(cyclopentylamino)azetidine-1-carbonyl)-4-fluorobenzyl)phthalazin-1(2H)-one hydrochloride]	44.9	80.9
	0.05 to 0.3		0.005 to 0.05	O=C(c1cc(Cc2n[nH]c(=O)c3ccccc23)ccc1F)N1CC[C@@H](Nc2ccc(C(F)(F)F)cn2)C1 [Compound I-131, (R)-4-(4-fluoro-3-(3-((5-(trifluoromethyl)pyridin-2-yl)amino)pyrrolidine-1-carbonyl)benzyl)phthalazin-1(2H)-one]		
2.02	≤ 0.005	0.05 to 0.3	0.05 to 0.3	O=C(c1cc(Cc2n[nH]c(=O)c3ccccc23)ccc1F)N1CC(NC2(C(F)(F)F)CC2)C1 [Compound I-80, 4-(4-fluoro-3-(3-((1-(trifluoromethyl)cyclopropyl)amino)azetidine-1-carbonyl)benzyl)phthalazin-1(2H)-one]	75.9	103.9
0.673	≤ 0.005	0.05 to 0.3		O=C(c1cc(Cc2n[nH]c(=O)c3ccccc23)ccc1F)N1CC(CNC2CC2)C1 [Compound I-143, 4-(3-(3-((cyclopropylamino)methyl)azetidine-1-carbonyl)-4-fluorobenzyl)phthalazin-1(2H)-one]		
0.0887	0.005 to 0.05	0.3 to 1		O=C(c1cc(Cc2n[nH]c(=O)c3ccccc23)ccc1F)N1CC(CN2CCC2)C1 [Compound I-142, 4-(3-(3-(azetidin-1-ylmethyl)azetidine-1-carbonyl)-4-fluorobenzyl)phthalazin-1(2H)-one]		
1.25	≤ 0.005	0.3 to 1	> 1	CCCCNC1CN(C(=O)c2cc(Cc3n[nH]c(=O)c4ccccc34)ccc2F)C1 [Compound I-53, 4-(3-(3-(butylamino)azetidine-1-carbonyl)-4-fluorobenzyl)phthalazin-1(2H)-one]		
0.51	≤ 0.005			O=C(c1cc(Cc2n[nH]c(=O)c3ccccc23)ccc1F)N1CC[C@@H](Nc2ncccn2)C1 [Compound I-120, (R)-4-(4-fluoro-3-(3-(Pyrimidin-2-ylamino)pyrrolidine-1-carbonyl)benzyl)phthalazin-1(2H)-one]		
2.25				Cl.O=C(c1cc(Cc2n[nH]c(=O)c3ccccc23)ccc1F)N1CC(NCC2CC2)C1 [Compound I-160, 4-(3-(3-((cyclopropylmethyl)amino)azetidine-1-carbonyl)-4-fluorobenzyl)phthalazin-1(2H)-one hydrochloride]	55.8	88.2
0.153	0.005 to 0.05			O=C(c1cc(Cc2n[nH]c(=O)c3ccccc23)ccc1F)N1CC[C@@H](N2CCC2)C1 [Compound I-135, (R)-4-(3-(3-(azetidin-1-yl)pyrrolidine-1-carbonyl)-4-fluorobenzyl)phthalazin-1(2H)-one]		
0.169	≤ 0.005	0.3 to 1	> 1	C#CCNCC1CN(C(=O)c2cc(Cc3n[nH]c(=O)c4ccccc34)ccc2F)C1 [Compound I-149, 4-(4-fluoro-3-(3-((prop-2-yn-1-ylamino)methyl)azetidine-1-carbonyl)benzyl)phthalazin-1(2H)-one]		
